Assays:
Test in all cases: post-emergence greenhouse herbicidal test
Type in all cases: in vivo
Conditions in all cases: application rate 250 g/ha, 100 = complete destruction, 0 = no damage
[1] = test system: AMARE (Amaranthus retroflexus)
Description: (§1) The seeds of the test plants were sown separately for each species. For the post-emergence treatment, the test plants were first grown to a height of 3 to 15 cm, depending on the plant habit, and only then treated with the active ingredients which had been suspended or emulsified in water. For this purpose, the test plants were either sown directly and grown in the same containers, or they were first grown separately as seedlings and transplanted into the test containers a few days prior to treatment. Depending on the species, the plants were kept at 10-25° C. or 20-25° C., respectively. The test period extended over 2 to 4 weeks. During this time, the plants were tended, and their response to the individual treatments was evaluated. Evaluation was carried out using a scale from 0 to 100. 100 means no emergence of the plants, or complete destruction of at least the aerial moieties, and 0 means no damage, or normal course of growth. A good herbicidal activity is given at values of at least 70 and a very good herbicidal activity is given at values of at least 85. At an application rate of 250 g/ha the following compounds were tested in post-emergence tests against: ECHCG (Echinocloa crus-galli) AMARE (Amaranthus retroflexus) CHEAL (Chenopodium album)

[2] = test system: CHEAL (Chenopodium album)
Description: as §1

[3] = test system: ECHCG (Echinocloa crus-galli)
Description: as §1

Cn1nnnc1NC(=O)c1cc(Cl)cc(NC(=O)N(C2CC2)C2CC2)c1Cl [Example 1, 2,5-dichloro-3-(dicyclopropylcarbamoylamino)-N-(1-methyltetrazol-5-yl)benzamide]
>80: herbicidal activity against AMARE (scale from 0 to 100) [1] | herbicidal activity against CHEAL (scale from 0 to 100) [2] | herbicidal activity against ECHCG (scale from 0 to 100) [3]

CN(CC(F)(F)F)C(=O)Nc1cc(Cl)cc(C(=O)Nc2nnnn2C)c1Cl [Example 2, 2,5-dichloro-3-[(2,2,2-trifluoroethyl)(methyl)carbamoylamino]-N-(1-methyltetrazol-5-yl)benzamide]
>80: herbicidal activity against AMARE (scale from 0 to 100) [1] | herbicidal activity against CHEAL (scale from 0 to 100) [2] | herbicidal activity against ECHCG (scale from 0 to 100) [3]

Reference: patent US20210179569A1, “BENZAMIDE COMPOUNDS AND THEIR USE AS HERBICIDES II” (BASF SE, priority 2017, published 2021)
